Measurements published in PubChem BioAssay (NCI).
Values joined by “and” are separate entries in the source; they are usually repeats but may differ in a detail not shown here. Equal entries are not always repeated.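 All cell lines were grown in 96-well plates and treated with compound for 48 hours. Abbreviation: GI50, concentration required for 50% inhibition of growth. At the TGI there is no net growth.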 Where a SMILES comes first, the peptide text is derived from it. The star is where a group is joined. Cbz = O=C(OCc1ccccc1)*; Boc = CC(C)(C)OC(=O)*; OSu = O=C1CCC(=O)N1O*; Bn = c1ccc(C*)cc1

Tests used:
Assay in all cases: DTP human tumour cell line panel, 48 h
M14 melanoma = tested on: M14 melanoma
NCI-H226 lung = tested on: NCI-H226 lung
LOX IMVI melanoma = tested on: LOX IMVI melanoma
TK-10 renal = tested on: TK-10 renal
HCT-116 colon = tested on: HCT-116 colon
OVCAR-4 ovarian = tested on: OVCAR-4 ovarian
KM12 colon = tested on: KM12 colon
SNB-19 CNS = tested on: SNB-19 CNS

Structure (SMILES)	TGI (M14 melanoma)	TGI (NCI-H226 lung) [µM]	TGI (LOX IMVI melanoma)	TGI (TK-10 renal)	TGI (HCT-116 colon)	TGI (OVCAR-4 ovarian)	TGI (KM12 colon)	TGI (SNB-19 CNS) [µM]	GI50 (M14 melanoma) [µM]	GI50 (LOX IMVI melanoma) [µM]	GI50 (HCT-116 colon) [µM]
CC(=O)Oc1ccccc1/C=C/C(=O)/C=C/c1ccccc1OC(C)=O	4.45 µM	3.89	2.01 µM	10.6 µM	0.973 µM	10.2 µM	3.06 µM	6.53	–	–	–
O=c1ccn(C2OC(CO)C(O)C2[Se]c2ccccc2)c(=O)[nH]1 (centres undefined)	> 100 µM	> 100	> 100 µM	0.685 µM	> 100 µM	> 100 µM	> 100 µM	> 100	–	–	–
O=C(Nc1ccccc1)N(C1=NCC(CI)S1)c1ccc(F)cc1F (centres undefined)	> 100 µM	> 100	35.2 µM	> 100 µM	> 100 µM	> 100 µM	> 100 µM	> 100	–	–	–
COc1cc2cccc(N)c2cc1OC	> 100 µM	> 100	> 100 µM	> 72 µM	> 100 µM	> 100 µM	> 100 µM	> 100	–	–	–
COc1ccc2[nH]cc([C@@H]3C4CCC(C4)[C@H]3NCc3cccc(CN[C@H]4C5CCC(C5)[C@@H]4c4c[nH]c5ccc(OC)cc45)c3)c2c1	1.41 µM and 1.5 µM	3.64	0.328 µM and 0.605 µM	2.87 µM and 3.03 µM	1.08 µM and 2.02 µM	2.77 µM and 2.75 µM	0.95 µM and 1.34 µM	2.94	0.423	0.184	0.351
Cc1nc(N/N=C/c2ccccc2Cl)[nH]c(=O)c1CCO	> 100 µM	> 100	> 100 µM	> 100 µM	> 100 µM	> 100 µM	> 100 µM	> 100	–	–	–
O=C(O)c1ccc(NC(NC(=O)C(C(F)(F)F)C(F)(F)F)(C(F)(F)F)C(F)(F)F)cc1	> 100 µM	–	> 100 µM	> 100 µM	> 100 µM	–	–	> 100	–	–	–
O=C(O)CCc1ccc2c(c1)C(=O)CC2	> 100 µM	> 100	> 100 µM	> 100 µM	> 100 µM	> 100 µM	> 100 µM	> 100	–	–	–
CC(C)(C)OC(=O)NC(Cc1ccc(OCc2ccccc2)cc1)C(=O)NC(CCCCNC(=O)OCc1ccccc1)C(=O)ON1C(=O)CCC1=O (centres undefined) (Boc-Tyr(Bn)-Lys(Cbz)-OSu; configuration not given here)	46.2 µM	99.6	–	> 100 µM	41 µM	–	65.5 µM	35.3	–	–	–
CO/N=C(\C(=O)N(C)n1cnnc1)c1csc(NC(c2ccccc2)(c2ccccc2)c2ccccc2)n1	> 10 µM	> 10	> 10 µM	> 10 µM	> 10 µM	> 10 µM	> 10 µM	> 10	–	–	–
Cc1ncc2c(=O)c3c(oc2n1)c1ccccc1n3Cc1ccccc1	–	> 100	> 100 µM	> 100 µM	> 100 µM	–	> 100 µM	> 100	–	–	–
c1ccc([P+](Cc2ccccc2C[P+](c2ccccc2)(c2ccccc2)c2ccccc2)(c2ccccc2)c2ccccc2)cc1	> 100 µM	> 100	> 100 µM	> 100 µM	> 100 µM	–	> 100 µM	> 100	–	–	–
Cc1ccc(S(=O)(=O)N2CCSCCN(S(=O)(=O)c3ccc(C)cc3)CCN(S(=O)(=O)c3ccc(C)cc3)CC2)cc1	> 100 µM	> 100	–	–	> 100 µM	> 100 µM	–	> 100	–	–	–
COc1ccc2cc(C(=O)O)ccc2c1OC	> 100 µM	> 100	–	–	> 100 µM	–	> 100 µM	> 100	–	–	–
O=c1[nH]nc(Cc2ccccc2)n1/N=C\c1ccccc1	–	> 100	> 100 µM	> 100 µM	> 100 µM	> 100 µM	> 100 µM	–	–	–	–
COc1cc(OC)c2nc(C)c3c(c2c1)NCC3	24.1 µM	19	15 µM	35.7 µM	12.9 µM	15.6 µM	–	40.7	–	–	–
CCc1n[nH]c(=O)n1/N=C/c1ccc(C)cc1	–	> 100	> 100 µM	> 100 µM	> 100 µM	> 100 µM	> 100 µM	> 100	–	–	–
CC(=O)Nc1ccc(-c2nc3ccccc3s2)cc1I	> 87.7 µM	59.4	> 81.7 µM	–	81 µM	> 100 µM	> 100 µM	> 87.5	–	–	–
C[n+]1c(-c2ccc(/C=N/NC(=O)C(=O)N/N=C/c3ccc(-c4cn5ccsc5[n+]4C)cc3)cc2)cn2ccsc21	> 100 µM	–	–	> 100 µM	> 100 µM	> 100 µM	> 100 µM	> 100	–	–	–
CC(NC(=O)c1ccccc1)NC(=O)C(C)C(=O)Nc1ccccc1 (centres undefined)	> 100 µM	> 100	–	> 100 µM	> 100 µM	> 100 µM	> 100 µM	71.7	–	–	–
N#C/C(C(=O)Nc1ccc(Cl)cc1)=C(/N)N1CCCCC1	> 100 µM	> 100	> 100 µM	–	> 100 µM	–	> 100 µM	> 100	–	–	–
CCN(CC)CCNC(=O)c1cc2cc(NC(=O)c3cc4cc(NC(=O)c5cc6cc(N)ccc6[nH]5)ccc4[nH]3)ccc2[nH]1	> 100 µM	> 100	> 100 µM	> 100 µM	–	> 100 µM	> 100 µM	> 100	–	–	–
COc1ccc(OCc2ccc3nc(-c4ccccc4)c(Cl)nc3c2)cc1	> 100 µM	–	> 100 µM	55.3 µM	> 100 µM	95.4 µM	> 100 µM	68.2	–	–	–
C=C[C@@H]1C[C@]2(C(=O)OC)Cc3nc4ccccc4nc3CC(C(=O)OC)=C2O1	> 100 µM	–	> 100 µM	> 100 µM	> 100 µM	> 100 µM	> 100 µM	> 100	–	–	–
Nc1ccn(C2CCC(CO)O2)c(=S)n1 (centres undefined)	> 100 µM	> 100	> 100 µM	> 100 µM	> 100 µM	–	> 100 µM	> 100	–	–	–
COc1cccc2c1OC(c1ccc(C#N)cc1)C([N+](=O)[O-])=C2 (centres undefined)	3.18 µM	9.75	3.38 µM	7.77 µM	2.8 µM	3.11 µM	–	19.2	–	–	–
C1=C(c2ccccc2)Nc2nnnn2C1c1ccccc1 (centres undefined)	79.8 µM	> 100	38.3 µM	73.9 µM	22.3 µM	–	28.6 µM	> 100	–	–	–
